{"source": "ChEMBL document CHEMBL6103537", "about": "(J Med Chem, 2025)", "key": {"[1]": {"molecular_target": "Protein cereblon/Signal transducer and activator of transcription 1-alpha/beta (Homo sapiens) (UniProt P42224+Q96SW2)", "experiment": "PROTAC activity at STAT1/CRBN in human MV4-11 cells assessed as reduction in STAT1 level at upto 10 uM incubated for 12 hrs by Western blot analysis", "format": "cell-based"}, "[2]": {"molecular_target": "T1, Protein cereblon/Signal transducer and activator of transcription 5A/Signal transducer and activator of transcription 5B (Homo sapiens) (UniProt P42229+P51692+Q96SW2)", "experiment": "PROTAC activity at STAT5 at residue Y694/CRBN in human MV4-11 cells assessed as reduction in STAT5 level at upto 10 uM incubated for 12 hrs by Western blot analysis", "format": "cell-based"}, "[3]": {"molecular_target": "Protein cereblon/Signal transducer and activator of transcription 2 (Homo sapiens) (UniProt Q96SW2+P52630)", "experiment": "PROTAC activity at STAT2/CRBN in human MV4-11 cells assessed as reduction in STAT2 level at 10 uM incubated for 12 hrs by Western blot analysis relative to control", "format": "cell-based"}, "[4]": {"molecular_target": "Protein cereblon/Signal transducer and activator of transcription 4 (Homo sapiens) (UniProt Q96SW2+Q14765)", "experiment": "PROTAC activity at STAT4/CRBN in human MV4-11 cells assessed as reduction in STAT4 level at 10 uM incubated for 12 hrs by Western blot analysis", "format": "cell-based"}, "[5]": {"molecular_target": "T2, Protein cereblon/Signal transducer and activator of transcription 6 (Homo sapiens, UniProt P42226+Q96SW2)", "experiment": "PROTAC activity at STAT6/CRBN in human PBMC cells assessed as reduction in STAT6 level incubated for 18 hrs by Western blot analysis", "format": "cell-based"}, "[6]": {"molecular_target": "T1, Protein cereblon/Signal transducer and activator of transcription 5A/Signal transducer and activator of transcription 5B (Homo sapiens)", "experiment": "PROTAC activity at STAT5/CRBN in human PBMC cells assessed as reduction in STAT5 level at 10 uM incubated for 18 hrs by Western blot analysis relative to control", "format": "cell-based"}, "[7]": {"molecular_target": "T2, Protein cereblon/Signal transducer and activator of transcription 6", "experiment": "PROTAC activity at STAT6/CRBN in human L-1236 cells assessed as reduction in STAT6 level incubated for 24 hrs by Western blot analysis", "format": "cell-based", "conditions": "dose 10.0 µM"}, "[8]": {"molecular_target": "T1, Protein cereblon/Signal transducer and activator of transcription 5A/Signal transducer and activator of transcription 5B (Homo sapiens)", "experiment": "PROTAC activity at STAT5/CRBN in human L-1236 cells assessed as reduction in STAT5 level at 10 uM incubated for 24 hrs by Western blot analysis", "format": "cell-based"}, "[9]": {"test_system": "PBMC", "experiment": "Downregulation of STAT2 level in human PBMC cells at 5 uM incubated for 18 hrs by Western blot analysis relative to control", "format": "functional, cell-based"}, "[10]": {"test_system": "PBMC", "experiment": "Downregulation of STAT3 level in human PBMC cells at 5 uM incubated for 18 hrs by Western blot analysis relative to control", "format": "functional, cell-based"}, "[11]": {"test_system": "PBMC", "experiment": "Downregulation of STAT4 level in human PBMC cells at 5 uM incubated for 18 hrs by Western blot analysis relative to control", "format": "functional, cell-based"}, "[12]": {"molecular_target": "T2, Protein cereblon/Signal transducer and activator of transcription 6", "experiment": "PROTAC activity at STAT6/CRBN in human MV4-11 cells assessed as reduction in STAT6 level at 2 uM measured upto 1200 mins in presence of […] by HiBiT bioluminescence assay", "format": "cell-based"}, "[13]": {"molecular_target": "Protein cereblon/Zinc finger protein Aiolos (Homo sapiens) (UniProt Q96SW2+Q9UKT9)", "experiment": "PROTAC activity at CRBN/IKZF3 in human Jurkat cells assessed as degradation of IKZF3 protein at 0.01 to 10 uM incubated for 20 hrs by Western blotting analysis", "format": "cell-based", "conditions": "dose 0.01-10 µM"}, "[14]": {"molecular_target": "Protein cereblon/Eukaryotic peptide chain release factor GTP-binding subunit ERF3A (Homo sapiens) (UniProt Q96SW2+P15170)", "experiment": "PROTAC activity at CRBN/GSPT1 in human Jurkat cells assessed as degradation of GSPT1 protein at 0.01 to 10 uM incubated for 20 hrs by Western blotting analysis", "format": "cell-based", "conditions": "dose 0.01-10 µM"}, "[15]": {"experiment": "Metabolic stability in human liver microsome assessed as parent compound remaining measured at 15 mins in presence of NADPH by LC-MS/MS analysis", "format": "ADME", "conditions": "liver microsomes, read-out: Stability"}, "[16]": {"experiment": "Metabolic stability in human liver microsome assessed as parent compound remaining measured at 45 mins in presence of NADPH by LC-MS/MS analysis", "format": "ADME", "conditions": "liver microsomes, read-out: Stability"}, "[17]": {"experiment": "Metabolic stability in monkey liver microsome assessed as parent compound remaining measured at 5 mins in presence of NADPH by LC-MS/MS analysis", "format": "ADME, Macaca mulatta", "conditions": "rhesus monkey, liver microsomes, read-out: Stability"}, "[18]": {"experiment": "Metabolic stability in rat liver microsome assessed as parent compound remaining measured at 45 mins in presence of NADPH by LC-MS/MS analysis", "format": "ADME", "conditions": "liver microsomes, read-out: Stability"}, "[19]": {"experiment": "Metabolic stability in mouse liver microsome assessed as parent compound remaining measured at 5 mins in presence of NADPH by LC-MS/MS analysis", "format": "ADME", "conditions": "liver microsomes, read-out: Stability"}, "[20]": {"experiment": "Metabolic stability in mouse liver microsome assessed as parent compound remaining measured at 30 mins in presence of NADPH by LC-MS/MS analysis", "format": "ADME", "conditions": "liver microsomes, read-out: Stability"}, "[21]": {"experiment": "Metabolic stability in human liver microsome assessed as half life measured upto 60 mins in presence of NADPH by LC-MS/MS analysis", "format": "ADME", "conditions": "liver microsomes"}, "[22]": {"experiment": "Metabolic stability in dog liver microsome assessed as half life measured upto 60 mins in presence of NADPH by LC-MS/MS analysis", "format": "ADME, Canis lupus familiaris", "conditions": "liver microsomes"}, "[23]": {"experiment": "Metabolic stability in monkey liver microsome assessed as half life measured upto 60 mins in presence of NADPH by LC-MS/MS analysis", "format": "ADME, Macaca mulatta", "conditions": "rhesus monkey, liver microsomes"}, "[24]": {"experiment": "Stability in human plasma assessed as parent compound remaining measured at 30 mins by LC-MS/MS analysis", "format": "ADME, cell-free", "conditions": "read-out: Stability"}, "[25]": {"experiment": "Stability in human plasma assessed as parent compound remaining measured at 120 mins by LC-MS/MS analysis", "format": "ADME, cell-free", "conditions": "read-out: Stability"}, "[26]": {"experiment": "Stability in dog plasma assessed as parent compound remaining measured at 15 mins by LC-MS/MS analysis", "format": "ADME, cell-free, Canis lupus familiaris", "conditions": "read-out: Stability"}, "[27]": {"experiment": "Stability in dog plasma assessed as parent compound remaining measured at 30 mins by LC-MS/MS analysis", "format": "ADME, cell-free, Canis lupus familiaris", "conditions": "read-out: Stability"}, "[28]": {"experiment": "Stability in dog plasma assessed as parent compound remaining measured at 60 mins by LC-MS/MS analysis", "format": "ADME, cell-free, Canis lupus familiaris", "conditions": "read-out: Stability"}, "[29]": {"experiment": "Stability in dog plasma assessed as parent compound remaining measured at 120 mins by LC-MS/MS analysis", "format": "ADME, cell-free, Canis lupus familiaris", "conditions": "read-out: Stability"}, "[30]": {"experiment": "Stability in rat plasma assessed as parent compound remaining measured at 30 mins by LC-MS/MS analysis", "format": "ADME, cell-free", "conditions": "read-out: Stability"}, "[31]": {"experiment": "Stability in rat plasma assessed as parent compound remaining measured at 60 mins by LC-MS/MS analysis", "format": "ADME, cell-free", "conditions": "read-out: Stability"}, "[32]": {"experiment": "Stability in rat plasma assessed as parent compound remaining measured at 120 mins by LC-MS/MS analysis", "format": "ADME, cell-free", "conditions": "read-out: Stability"}, "[33]": {"experiment": "Stability in mouse plasma assessed as parent compound remaining measured at 5 mins by LC-MS/MS analysis", "format": "ADME, cell-free", "conditions": "read-out: Stability"}, "[34]": {"experiment": "Stability in mouse plasma assessed as parent compound remaining measured at 60 mins by LC-MS/MS analysis", "format": "ADME, cell-free", "conditions": "read-out: Stability"}, "[35]": {"experiment": "Stability in rat plasma assessed as half life measured upto 60 mins by LC-MS/MS analysis", "format": "ADME, cell-free"}, "[36]": {"molecular_target": "Protein cereblon/Signal transducer and transcription activator 6 (Mus musculus) (UniProt P52633+Q8C7D2)", "experiment": "In vivo PROTAC activity at STAT6/CRBN in BALB/c mouse assessed as reduction in STAT6 level in lung at 200 mg/kg, ip measured at 6 hrs by Western blot analysis", "format": "functional, organism-based", "set-up": "scale not given: the % may be the effect or the level left"}}, "note": "The source made the active and inactive calls. No cut-off for these calls is given here.", "data": [{"compound": "CC(C)(C)[C@H](NC(=O)c1cc2cc(C(F)(F)P(=O)(O)O)ccc2s1)C(=O)N1C[C@@H](OCCCCCC#Cc2cccc3c2CN(C2CCC(=O)NC2=O)C3=O)C[C@H]1C(=O)N1CCO[C@H](c2ccccc2)C1", "note": "(stereo partly specified)", "values": [{"measurement": "Activity", "setting": "[1]", "value": "No effect"}, {"measurement": "Activity", "setting": "[2]", "value": "No effect"}, {"measurement": "Emax", "setting": "[3]", "value": "< 40", "unit": "%"}, {"measurement": "Activity", "setting": "[4]", "value": "inactive"}, {"measurement": "DC50", "setting": "[5]", "value": 0.08, "unit": "µM"}, {"measurement": "Activity", "setting": "[6]", "value": "No effect"}, {"measurement": "Activity", "setting": "[7]", "value": "Dose-dependent-effect"}, {"measurement": "Activity", "setting": "[8]", "value": "No effect"}, {"measurement": "Activity", "setting": "[9]", "value": "inactive"}, {"measurement": "Activity", "setting": "[10]", "value": "inactive"}, {"measurement": "Activity", "setting": "[11]", "value": "inactive"}, {"measurement": "Activity", "setting": "[12]", "value": "Active"}, {"measurement": "Activity", "setting": "[13]", "value": "No effect"}, {"measurement": "Activity", "setting": "[14]", "value": "No effect"}, {"measurement": "remaining at 0.25 h", "setting": "[15]", "value": 98, "unit": "%"}, {"measurement": "remaining at 0.75 h", "setting": "[16]", "value": 91, "unit": "%"}, {"measurement": "remaining at 5 min", "setting": "[17]", "value": 95, "unit": "%"}, {"measurement": "remaining at 0.75 h", "setting": "[18]", "value": 90, "unit": "%"}, {"measurement": "remaining at 5 min", "setting": "[19]", "value": 98, "unit": "%"}, {"measurement": "remaining at 0.5 h", "setting": "[20]", "value": 94, "unit": "%"}, {"measurement": "half-life", "setting": "[21]", "value": "> 2", "unit": "h"}, {"measurement": "half-life", "setting": "[22]", "value": "> 2", "unit": "h"}, {"measurement": "half-life", "setting": "[23]", "value": 1.05, "unit": "h"}, {"measurement": "remaining at 0.5 h", "setting": "[24]", "value": 82, "unit": "%"}, {"measurement": "remaining at 2 h", "setting": "[25]", "value": 74, "unit": "%"}, {"measurement": "remaining at 0.25 h", "setting": "[26]", "value": 87, "unit": "%"}, {"measurement": "remaining at 0.5 h", "setting": "[27]", "value": 75, "unit": "%"}, {"measurement": "remaining at 1 h", "setting": "[28]", "value": 69, "unit": "%"}, {"measurement": "remaining at 2 h", "setting": "[29]", "value": 67, "unit": "%"}, {"measurement": "remaining at 0.5 h", "setting": "[30]", "value": 85, "unit": "%"}, {"measurement": "remaining at 1 h", "setting": "[31]", "value": 91, "unit": "%"}, {"measurement": "remaining at 2 h", "setting": "[32]", "value": 67, "unit": "%"}, {"measurement": "remaining at 5 min", "setting": "[33]", "value": 102, "unit": "%"}, {"measurement": "remaining at 1 h", "setting": "[34]", "value": 91, "unit": "%"}, {"measurement": "half-life", "setting": "[35]", "value": "> 2", "unit": "h"}, {"measurement": "Activity", "setting": "[36]", "value": "> 90", "unit": "%"}]}]}
